The values below come from patent US20230117034A1, “PYRAZOLOTRIAZINES” (Bayer Aktiengesellschaft, priority 2019, published 2023).

The target of one assay is T1, CDK2/CycE (Homo sapiens, UniProt P24941).
T1 construct: purchased ProQinase GmbH (Freiburg, Germany); host or cells: insect cells (Sf9)
Briefly: CDK2/CycE kinase assay (TR-FRET, 2 mM ATP). In kind it is biochemical. The conditions noted are these: 2 mM ATP (high ATP); median; read-out: CDK2/CyclinE, 2 mM ATP (high ATP), IC50 (median). The essentials:
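Biotin-peptide phosphorylation (0.75 µM substrate, 2 mM ATP final, 25 min, 22 °C) by Sf9-expressed GST-CDK2/GST-CycE, after a 15-min compound pre-binding step. Inhibition scaled between enzyme-free (100%) and uninhibited (0%) wells.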
On the technique in general: TR-FRET usually uses a lanthanide donor and a delayed reading to cut background.

Assay [1] deals with CAL-120, human breast adenocarcinoma cells. Description: Proliferation assay CAL-120 (crystal violet, 4 days). In kind it is cell-based. The conditions noted are these: Homo sapiens, CAL-120, 96 h, CAL-120 cells, median, read-out: Prolif-CAL-120, IC50-[mol/l] (median). Put shortly: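 IC50 from a 4-parameter fit of crystal violet absorbance (595 nm), scaled between a day-0 plate (0%) and untreated wells (100%). Cells grown in 10% FCS medium were exposed to test substances at 0.01-10 µmol/L for 4 days, 0.1% DMSO final.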

The target of assay [2] is T2, CDK12 (nuclear staining in CAL-120 cells) (Homo sapiens, UniProt Q9NYV4).
T2 construct: endogenous in cells; host or cells: CAL-120 human breast cancer cells (DSMZ ACC 459)
T2 sequence (Q9NYV4 whole entry): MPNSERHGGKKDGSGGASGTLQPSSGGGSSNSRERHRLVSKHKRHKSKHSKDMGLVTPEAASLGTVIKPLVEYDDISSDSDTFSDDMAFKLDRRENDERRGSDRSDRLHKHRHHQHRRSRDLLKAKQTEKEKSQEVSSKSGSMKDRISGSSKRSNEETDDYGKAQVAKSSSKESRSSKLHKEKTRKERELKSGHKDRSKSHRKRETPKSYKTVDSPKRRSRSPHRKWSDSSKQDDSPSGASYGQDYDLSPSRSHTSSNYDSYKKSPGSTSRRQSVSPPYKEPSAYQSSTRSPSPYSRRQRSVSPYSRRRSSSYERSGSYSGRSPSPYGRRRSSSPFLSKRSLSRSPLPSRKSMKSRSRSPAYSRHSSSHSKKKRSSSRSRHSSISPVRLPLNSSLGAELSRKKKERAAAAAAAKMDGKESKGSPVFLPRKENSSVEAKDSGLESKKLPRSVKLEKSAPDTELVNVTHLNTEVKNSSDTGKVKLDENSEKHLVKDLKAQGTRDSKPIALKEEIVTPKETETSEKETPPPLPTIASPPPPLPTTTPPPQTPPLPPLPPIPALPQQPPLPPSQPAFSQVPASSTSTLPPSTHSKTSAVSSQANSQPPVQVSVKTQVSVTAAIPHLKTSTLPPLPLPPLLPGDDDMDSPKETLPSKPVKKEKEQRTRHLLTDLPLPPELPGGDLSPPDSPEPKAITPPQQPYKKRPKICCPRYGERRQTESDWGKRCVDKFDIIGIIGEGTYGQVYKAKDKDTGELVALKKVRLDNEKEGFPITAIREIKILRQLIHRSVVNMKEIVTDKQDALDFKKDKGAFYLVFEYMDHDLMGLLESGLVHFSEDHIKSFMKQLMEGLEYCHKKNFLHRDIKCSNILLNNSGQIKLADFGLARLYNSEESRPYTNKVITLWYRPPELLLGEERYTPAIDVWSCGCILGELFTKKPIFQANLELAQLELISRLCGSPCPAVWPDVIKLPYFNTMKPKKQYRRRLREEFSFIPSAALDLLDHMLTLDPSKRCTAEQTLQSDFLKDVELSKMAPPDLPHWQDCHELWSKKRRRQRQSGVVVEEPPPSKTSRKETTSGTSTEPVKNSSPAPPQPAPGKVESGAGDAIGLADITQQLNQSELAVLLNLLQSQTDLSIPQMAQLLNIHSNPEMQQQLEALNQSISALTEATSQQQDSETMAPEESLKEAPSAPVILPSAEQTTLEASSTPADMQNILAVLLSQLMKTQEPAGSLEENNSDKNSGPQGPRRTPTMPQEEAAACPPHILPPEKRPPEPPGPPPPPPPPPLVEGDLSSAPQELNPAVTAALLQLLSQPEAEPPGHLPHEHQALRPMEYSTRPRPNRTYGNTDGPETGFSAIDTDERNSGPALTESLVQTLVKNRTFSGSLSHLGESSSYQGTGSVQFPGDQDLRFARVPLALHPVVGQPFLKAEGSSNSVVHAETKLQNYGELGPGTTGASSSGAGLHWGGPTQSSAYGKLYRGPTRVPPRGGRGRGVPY
T2 sequence (O75909 whole entry partner): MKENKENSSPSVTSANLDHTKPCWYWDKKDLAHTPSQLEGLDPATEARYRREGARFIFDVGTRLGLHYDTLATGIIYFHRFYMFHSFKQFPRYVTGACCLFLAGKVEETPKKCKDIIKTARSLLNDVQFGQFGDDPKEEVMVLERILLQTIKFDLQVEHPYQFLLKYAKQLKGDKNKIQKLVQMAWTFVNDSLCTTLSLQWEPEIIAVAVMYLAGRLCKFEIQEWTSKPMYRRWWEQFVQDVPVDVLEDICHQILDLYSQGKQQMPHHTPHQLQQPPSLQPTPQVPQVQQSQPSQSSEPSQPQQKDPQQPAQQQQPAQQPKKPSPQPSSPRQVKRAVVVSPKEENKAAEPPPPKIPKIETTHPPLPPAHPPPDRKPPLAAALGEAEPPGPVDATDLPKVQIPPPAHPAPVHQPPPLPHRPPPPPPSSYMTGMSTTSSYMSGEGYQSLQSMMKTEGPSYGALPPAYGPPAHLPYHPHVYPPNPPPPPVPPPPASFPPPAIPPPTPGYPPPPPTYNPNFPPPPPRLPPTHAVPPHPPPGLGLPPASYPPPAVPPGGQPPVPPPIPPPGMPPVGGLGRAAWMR
Description: CDK12 nuclear protein level: immunofluorescence/high content analysis (CAL-120). In kind it is cell-based. The conditions noted are these: for DC50: CAL-120 cells, 24 h, immunofluorescence, 50% reduction of nuclear CDK12 staining intensity, median, read-out: CDK12 degradation IF, DC50- [mol/l] (median); for (IC50 CDK12 high ATP) to (Degradation DC50 CDK12) ratio: ratio of IC50 CDK12 high ATP kinase assay to DC50 CDK12 degradation (IF, CAL-120). Put shortly:
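DC50 is the degrader concentration that halves nuclear CDK12 immunofluorescence relative to controls, measured by high-content imaging. CAL-120 cells were exposed to compound for 24 h at 37 °C before PFA fixation, and signal was normalized to DMSO and control wells.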

With `c1ccc2[nH]c(CNc3nc(N4CCOCC4)nc4c(C5CCC5)cnn34)nc2c1` [Example 263, N-[(1H-benzimidazol-2-yl)methyl]-8-cyclobutyl-2-(morpholin-4-yl)pyrazolo[1,5-a][1,3,5]triazin-4-amine], at CDK2/CycE, the IC50 was more than 20 µM. Further, the IC50 in assay [1] turned out to be 28.9 nM. For the same compound, in assay [2], the DC50 was determined as 23.4 nM and the “(IC50 CDK12 high ATP) to (Degradation DC50 CDK12) ratio” value was determined as 294.
Consider `Fc1ccc2[nH]c(CNc3nc(N4CCOCC4)nc4c(CC(F)(F)F)cnn34)nc2c1` [Example 308, N-[(5-fluoro-1H-benzimidazol-2-yl)methyl]-2-(morpholin-4-yl)-8-(2,2,2-trifluoroethyl)pyrazolo[1,5-a][1,3,5]triazin-4-amine], for which, on CDK2/CycE, the IC50 is more than 20 µM. In addition, the IC50 in assay [1] is 10.2 nM. For the same compound, in assay [2], the DC50 worked out at 4.93 nM and the “(IC50 CDK12 high ATP) to (Degradation DC50 CDK12) ratio” value worked out at 1297.
As for `Clc1cc2nc(CNc3nc(N4CCOCC4)nc4c(C5CC5)cnn34)[nH]c2cc1Cl` [Example 301, 8-cyclopropyl-N-[(5,6-dichloro-1H-benzimidazol-2-yl)methyl]-2-(morpholin-4-yl)pyrazolo[1,5-a][1,3,5]triazin-4-amine], on CDK2/CycE, the IC50 was more than 20 µM. The IC50 in assay [1] was found to be 5.74 nM. Also, in assay [2], the DC50 came out at 4.37 nM and the “(IC50 CDK12 high ATP) to (Degradation DC50 CDK12) ratio” value is recorded as 270.
`Brc1cnn2c(NCc3nnc(-c4ccccc4)[nH]3)nc(N3CCOCC3)nc12` [Example 24, 8-bromo-2-(morpholin-4-yl)-N-[(5-phenyl-4H-1,2,4-triazol-3-yl)methyl]pyrazolo[1,5-a][1,3,5]triazin-4-amine]: the IC50 on CDK2/CycE stood at 2.32 µM. The IC50 in assay [1] was found to be 35.7 nM. In assay [2], the DC50 came out at 7.78 nM and the “(IC50 CDK12 high ATP) to (Degradation DC50 CDK12) ratio” value was found to be 564.
Taken in the same sequence, the figures for `CN[C@H]1CCN(c2nc(NCc3nc4ccccc4[nH]3)n3ncc(Br)c3n2)C1` [Example 252, N-[(1H-benzimidazol-2-yl)methyl]-8-bromo-2-[(3S)-3-(methylamino)pyrrolidin-1-yl]pyrazolo[1,5-a][1,3,5]triazin-4-amine] were 13.3 µM, 38.7 nM, 1.17 nM and more than 17030.
For the compound `Brc1cnn2c(NCc3nc4ccccc4[nH]3)nc(N3C[C@@H]4C[C@H]3CN4)nc12` [Example 270, N-[(1H-benzimidazol-2-yl)methyl]-8-bromo-2-[(1S,4S)-2,5-diazabicyclo[2.2.1]heptan-2-yl]pyrazolo[1,5-a][1,3,5]triazin-4-amine], the IC50 on CDK2/CycE is 1.79 µM. Also, the IC50 in assay [1] amounted to 6.92 nM. For the same compound, in assay [2], the DC50 was 1.71 nM and the “(IC50 CDK12 high ATP) to (Degradation DC50 CDK12) ratio” value was 8023.
Taken in the same sequence, the figures for `CN1CCN(c2nc(NCc3nc4ccccc4[nH]3)n3ncc(Br)c3n2)C(CO)C1` (single isomer, unassigned) [Example 280, [(2R or S)-1-(4-{[(1H-benzimidazol-2-yl)methyl]amino}-8-bromopyrazolo[1,5-a][1,3,5]triazin-2-yl)-4-methylpiperazin-2-yl]methanol] were 17.4 µM, 64.1 nM, 21.4 nM and 678.
Taken in the same sequence, the figures for `CC1(N)CCN(c2nc(NCc3nc4ccccc4[nH]3)n3ncc(Br)c3n2)CC1` [Example 290, 2-(4-amino-4-methylpiperidin-1-yl)-N-[(1H-benzimidazol-2-yl)methyl]-8-bromopyrazolo[1,5-a][1,3,5]triazin-4-amine] were 7.21 µM, 20.3 nM, 21.5 nM and more than 920.
Consider `CN1CCN(c2nc(NCc3nc4cc(Cl)ccc4[nH]3)n3ncc(C(F)(F)F)c3n2)CC1` [Example 298, N-[(5-chloro-1H-benzimidazol-2-yl)methyl]-2-(4-methylpiperazin-1-yl)-8-(trifluoromethyl)pyrazolo[1,5-a][1,3,5]triazin-4-amine], for which the IC50 on CDK2/CycE was more than 19.5 µM; in assay [1], 4.05 nM. Further, in assay [2], the DC50 amounted to 4.22 nM. Further, the “(IC50 CDK12 high ATP) to (Degradation DC50 CDK12) ratio” value in assay [2] came out at 1968.
On to `c1ccc2[nH]c(CNc3nc(N4CCOCC4)nc4c(C5CCCC5)cnn34)nc2c1` [Example 244, N-[(1H-benzimidazol-2-yl)methyl]-8-cyclopentyl-2-(morpholin-4-yl)pyrazolo[1,5-a][1,3,5]triazin-4-amine], for which the values for the IC50 (at CDK2/CycE; in assay [1]) were more than 20 µM and 218 nM, respectively. Moreover, the DC50 in assay [2] was found to be 101 nM.
Consider `CN1CCN(c2nc(NCc3nc4ccccc4[nH]3)n3ncc(C4CC4)c3n2)CC1` [Example 246, N-[(1H-benzimidazol-2-yl)methyl]-8-cyclopropyl-2-(4-methylpiperazin-1-yl)pyrazolo[1,5-a][1,3,5]triazin-4-amine], for which the figures for the IC50 (at CDK2/CycE; in assay [1]) were more than 20 µM and 12.1 nM, respectively. In addition, the DC50 in assay [2] is 3 nM. In addition, in assay [2], the “(IC50 CDK12 high ATP) to (Degradation DC50 CDK12) ratio” value was more than 4287.
Turning to `Fc1ccc2[nH]c(CNc3nc(N4CCOCC4)nc4c(C5CC5(F)F)cnn34)nc2c1` (racemic) [Example 286, 8-[(1RS)-2,2-difluorocyclopropyl]-N-[(5-fluoro-1H-benzimidazol-2-yl)methyl]-2-(morpholin-4-yl)pyrazolo[1,5-a][1,3,5]triazin-4-amine], the IC50 at CDK2/CycE is more than 20 µM. The IC50 in assay [1] worked out at 20.8 nM. Also, in assay [2], the DC50 amounted to 5.38 nM and the “(IC50 CDK12 high ATP) to (Degradation DC50 CDK12) ratio” value was found to be 2107.
Taken in the same sequence, the figures for `COc1ccc2[nH]c(CNc3nc(N4CCOCC4)nc4c(C(F)(F)F)cnn34)nc2c1` [Example 257, N-[(5-methoxy-1H-benzimidazol-2-yl)methyl]-2-(morpholin-4-yl)-8-(trifluoromethyl)pyrazolo[1,5-a][1,3,5]triazin-4-amine] were 16.1 µM, 10.8 nM, 3 nM and 39.
Taken in the same sequence, the figures for `Fc1ccc2[nH]c(CNc3nc(N4CCOCC4)nc4c(C5CC5(F)F)cnn34)nc2c1F` (stereo not drawn) [Example 278, N-[(4,5-difluoro-1H-benzimidazol-2-yl)methyl]-8-(2,2-difluorocyclopropyl)-2-(morpholin-4-yl)pyrazolo[1,5-a][1,3,5]triazin-4-amine] were more than 20 µM, 7.54 nM, 1.18 nM and 2070.
Consider `Fc1cccc2[nH]c(CNc3nc(N4CCOCC4)nc4c(C(F)(F)F)cnn34)nc12` [Example 274, N-[(4-fluoro-1H-benzimidazol-2-yl)methyl]-2-(morpholin-4-yl)-8-(trifluoromethyl)pyrazolo[1,5-a][1,3,5]triazin-4-amine], for which the IC50 at CDK2/CycE was more than 12.9 µM. In addition, in assay [1], the IC50 was 4.89 nM. In addition, in assay [2], the DC50 turned out to be 0.881 nM and the “(IC50 CDK12 high ATP) to (Degradation DC50 CDK12) ratio” value came to 64.
On to `Fc1ccc2[nH]c(CNc3nc(N4CCOCC4)nc4c(C5CC5(F)F)cnn34)nc2c1` (single isomer, unassigned) [Example 314, 8-[(1R or S)-2,2-difluorocyclopropyl]-N-[(5-fluoro-1H-benzimidazol-2-yl)methyl]-2-(morpholin-4-yl)pyrazolo[1,5-a][1,3,5]triazin-4-amine], for which, on CDK2/CycE, the IC50 is more than 20 µM. Further, in assay [1], the IC50 stood at 13 nM. Further, in assay [2], the DC50 stood at 8.47 nM and the “(IC50 CDK12 high ATP) to (Degradation DC50 CDK12) ratio” value is listed as 1171.
For `C[C@@]1(O)CCN(c2nc(NCc3nc4ccccc4[nH]3)n3ncc(Br)c3n2)C1` (single isomer, unassigned) [Example 281, (3R or S)-1-(4-{[(1H-benzimidazol-2-yl)methyl]amino}-8-bromopyrazolo[1,5-a][1,3,5]triazin-2-yl)-3-methylpyrrolidin-3-ol], in that order: 3.28 µM, 85.4 nM, 40.3 nM and more than 419.
For `N[C@@H]1[C@@H]2C[C@H]1CN(c1nc(NCc3nc4ccccc4[nH]3)n3ncc(Br)c3n1)C2` [Example 289, 2-[(1R,5S,6s)-6-amino-3-azabicyclo[3.1.1]heptan-3-yl]-N-[(1H-benzimidazol-2-yl)methyl]-8-bromopyrazolo[1,5-a][1,3,5]triazin-4-amine], in that order: 5.29 µM, 3.08 nM, 3.13 nM and 2240.
On to `Fc1ccc2[nH]c(CNc3nc(N4CC5CCC(C4)N5)nc4c(C(F)(F)F)cnn34)nc2c1F` [Example 310, 2-(3,8-diazabicyclo[3.2.1]octan-3-yl)-N-[(4,5-difluoro-1H-benzimidazol-2-yl)methyl]-8-(trifluoromethyl)pyrazolo[1,5-a][1,3,5]triazin-4-amine], for which the IC50 on CDK2/CycE was more than 18.6 µM. Besides, in assay [1], the IC50 came out at 1.74 nM. In assay [2], the DC50 came out at 17.3 nM and the “(IC50 CDK12 high ATP) to (Degradation DC50 CDK12) ratio” value is 75.
